Results from patent US20050020658A1, “Selective cyclooxygenase-2 inhibitor patch” (priority 2002, published 2005).

Assays:
[1] = Skin flux of 10 mM drug solutions in NMP, Franz diffusion cell; format: in vitro ADME, rat; details: 10 mM solution in NMP, 1 ml; receptor 10% NMP in phosphate buffer saline pH 7.4; 32° C.; 3 replicates
Protocol: (§1) A 15 mm disk of the membrane was placed on a diffusion cell filled with the receptor fluid and the diffusion cell was maintained at 32° C. A 10 mM solution of each drug in NMP was placed in an amount of 1 ml on the membrane. […] The test was conducted in 3 replicates.

[2] = Solubility of celecoxib and valdecoxib in various solvents at room temperature; format: physicochemical
Protocol: In order to identify candidate solvent systems for patch formulations of selective COX-2 inhibitory drugs of low water solubility, various solvents were tested for solubility of celecoxib and valdecoxib at room temperature.

[3] = In vitro skin permeation of poultice, tape and gel formulations, Franz diffusion cell; format: in vitro ADME, rat
Protocol: as §1, with “replicates. […] The test solutions in this example comprised celecoxib or valdecoxib at a concentration of 1% weight/volume in various solvents. The test was conducted in 3 replicates. A 25 mm disk was punched from each poultice and placed on a Franz diffusion cell. […]” for “replicates.”

[4] = Solubility of valdecoxib in NMP/PEG 400 mixtures at room temperature; format: physicochemical
Protocol: Solubility was determined by preparing a saturated solution of valdecoxib in the test solvent system at 80° C. and cooling this solution for 24 hours at room temperature.

[5] = In vitro skin permeation of 1% drug solutions, Franz diffusion cell; format: in vitro ADME, rat
Protocol: A 15 mm disk of the membrane was placed on a diffusion cell filled with the receptor fluid and the diffusion cell was maintained at 32° C. A 10 mM solution of each drug in NMP was placed in an amount of 1 ml on the membrane. The amount of drug that had permeated through the membrane by various times in an 8-10 hour period was determined by HPLC analysis of the receptor fluid. The test was conducted in 3 replicates. […] The test solutions in this example comprised celecoxib or valdecoxib at a concentration of 1% weight/volume in various solvents. The test was conducted in 3 replicates. […] The test solutions in this example comprised celecoxib or valdecoxib at a concentration of 1% weight/volume in NMP, with or without oleic acid at 1% weight/volume. The test was conducted in 3 replicates.

[6] = in 1,3-butylene glycol, room temperature
[7] = in crotamiton, room temperature
[8] = in diethyl sebacate, room temperature
[9] = in dipropylene glycol, room temperature
[10] = in propylene glycol, room temperature
[11] = 0.5% poultice (crotamiton/PEG 400 solvents), 25 mm disk

CC(C(=O)O)c1cccc(C(=O)c2ccccc2)c1 (centres unmarked) [ketoprofen]
skin flux [1]: 33.4 nmol/cm^2 · h

Cc1onc(-c2ccccc2)c1-c1ccc(S(N)(=O)=O)cc1 [valdecoxib, 4-[5-methyl-3-phenylisoxazol-4-yl]benzenesulfonamide]
solubility [2, 6]: 19 mg/g
solubility ([2]; in DIA, room temperature): 20 mg/g
solubility ([2]; in NMP, room temperature): 190 mg/g
solubility ([2]; in PEG 400, room temperature): 198 mg/g
solubility [2, 7]: 165 mg/g
solubility [2, 8]: 10 mg/g
solubility [2, 9]: 67 mg/g
solubility ([2]; in glycerol, room temperature): 1 mg/g
solubility [2, 10]: 30 mg/g
skin flux [3, 11]: 0.009 μg/cm^2 · h
skin flux ([3]; 1.0% gel (70% ethanol), 200 mg): 0.115 μg/cm^2 · h
solubility ([4]; NMP:PEG 400 ratio 0:5, saturated at 80° C., cooled 24 hours at room temperature): 169 mg/g
solubility ([4]; NMP:PEG 400 ratio 5:0): 190 mg/g
solubility ([4]; NMP:PEG 400 ratio 5:1): 149 mg/g
solubility ([4]; NMP:PEG 400 ratio 5:2): 126 mg/g
solubility ([4]; NMP:PEG 400 ratio 5:3): 100 mg/g
solubility ([4]; NMP:PEG 400 ratio 5:4): 73 mg/g
solubility ([4]; NMP:PEG 400 ratio 5:5): 71 mg/g
skin flux [1]: 3.3 nmol/cm^2 · h
time at which amount of drug permeated reached a plateau ([5]; 1% in NMP, FIG. 4): about 4 hours
skin flux ([5]; 1% weight/volume in NMP): 0.51 μg/cm^2 · h
skin flux ([5]; 1% weight/volume in PEG 400): not detectable
skin flux ([5]; 1% weight/volume in crotamiton): 0.02 μg/cm^2 · h

Cc1ccc(-c2cc(C(F)(F)F)nn2-c2ccc(S(N)(=O)=O)cc2)cc1 [celecoxib, 4-[5-(4-methylphenyl)-3-(trifluoromethyl)-1H-pyrazol-1-yl]benzenesulfonamide]
solubility [2, 6]: 20 mg/g
solubility ([2]; in DIA, room temperature): 94 mg/g
solubility ([2]; in NMP, room temperature): 219 mg/g
solubility ([2]; in PEG 400, room temperature): 340 mg/g
solubility [2, 7]: 306 mg/g
solubility [2, 8]: 77 mg/g
solubility [2, 9]: 44 mg/g
solubility [2, 10]: 28 mg/g
skin flux [3, 11]: 0.008 μg/cm^2 · h
skin flux ([3]; 1.0% gel (70% ethanol), 200 mg): 0.039 μg/cm^2 · h
skin flux [1]: 1.6 nmol/cm^2 · h
skin flux ([5]; 1% weight/volume in NMP): 0.15 μg/cm^2 · h
skin flux ([5]; 1% weight/volume in PEG 400): not detectable
skin flux ([5]; 1% weight/volume in crotamiton): not detectable
